System: 12 single or co-culture in vitro tissue models of primary cells
Assay: Culture/co-culture cell model panel, extracellular biomarkers (DiscoveRx); for CCL2/MCP-1: reference of the scale not given here; for CD141/Thrombomodulin: reference of the scale not given here; for CD142/Tissue Factor: reference of the scale not given here; for CXCL8/IL-8: reference of the scale not given here; for CXCL9/MIG: reference of the scale not given here; for M-CSF: reference of the scale not given here; for SRB: reference of the scale not given here
Type: cell-based, human
[1] = /HDFNo unstimulated fibroblasts, 1.00E0 nM
[2] = /HDFNo unstimulated fibroblasts, 1.00E1 nM
[3] = /HDFNo unstimulated fibroblasts, 1.00E2 nM
[4] = /HDFNo unstimulated fibroblasts, 1.00E3 nM
[5] = /HDFNo unstimulated fibroblasts, 1.00E4 nM

With `CN1c2ccc(-c3cncc(Cl)c3N3CCC4(CC3)CNC(=O)O4)cc2CS1(=O)=O` [CMPD2] the CCL2/MCP-1 (3C, 1.00E0 nM) was 0.00665, the CD54/ICAM-1 (3C, 1.00E0 nM) was -0.015 and the CD87/uPAR (3C, 1.00E0 nM) was -0.232. For the same compound, the CD106/VCAM-1 (3C, 1.00E0 nM) was 0.040, the CD141/Thrombomodulin (3C, 1.00E0 nM) was 0.035 and the “CD142/Tissue Factor” value (3C, 1.00E0 nM) was 0.086. The CXCL8/IL-8 (3C, 1.00E0 nM) was 0.001, the CXCL9/MIG (3C, 1.00E0 nM) was -0.002 and the HLA-DR (3C, 1.00E0 nM) was -0.059. The Proliferation (3C, 1.00E0 nM) was -0.0027, the SRB (3C, 1.00E0 nM) was -0.057 and the CCL2/MCP-1 (3C, 1.00E1 nM) was -0.088. The CD54/ICAM-1 (3C, 1.00E1 nM) was -0.034, the CD87/uPAR (3C, 1.00E1 nM) was -0.339 and the CD106/VCAM-1 (3C, 1.00E1 nM) was 0.048. The CD141/Thrombomodulin (3C, 1.00E1 nM) was 0.056, the “CD142/Tissue Factor” value (3C, 1.00E1 nM) was 0.130 and the CXCL8/IL-8 (3C, 1.00E1 nM) was -0.104. The CXCL9/MIG (3C, 1.00E1 nM) was -0.011, the HLA-DR (3C, 1.00E1 nM) was -0.129 and the Proliferation (3C, 1.00E1 nM) was -0.036. For the same compound, the SRB (3C, 1.00E1 nM) was -0.071, the CCL2/MCP-1 (3C, 1.00E2 nM) was -0.157 and the CD54/ICAM-1 (3C, 1.00E2 nM) was -0.046. The CD87/uPAR (3C, 1.00E2 nM) was -0.368, the CD106/VCAM-1 (3C, 1.00E2 nM) was 0.046 and the CD141/Thrombomodulin (3C, 1.00E2 nM) was 0.051. For the same compound, the “CD142/Tissue Factor” value (3C, 1.00E2 nM) was 0.120, the CXCL8/IL-8 (3C, 1.00E2 nM) was -0.212 and the CXCL9/MIG (3C, 1.00E2 nM) was -0.016. The HLA-DR (3C, 1.00E2 nM) was -0.138, the Proliferation (3C, 1.00E2 nM) was -0.098 and the SRB (3C, 1.00E2 nM) was -0.085. The CCL2/MCP-1 (3C, 1.00E3 nM) was -0.150, the CD54/ICAM-1 (3C, 1.00E3 nM) was -0.055 and the CD87/uPAR (3C, 1.00E3 nM) was -0.368. For the same compound, the CD106/VCAM-1 (3C, 1.00E3 nM) was 0.045, the CD141/Thrombomodulin (3C, 1.00E3 nM) was 0.055 and the “CD142/Tissue Factor” value (3C, 1.00E3 nM) was 0.116. For the same compound, the CXCL8/IL-8 (3C, 1.00E3 nM) was -0.275, the CXCL9/MIG (3C, 1.00E3 nM) was -0.019 and the HLA-DR (3C, 1.00E3 nM) was -0.153. The Proliferation (3C, 1.00E3 nM) was -0.074, the SRB (3C, 1.00E3 nM) was -0.078 and the CCL2/MCP-1 (3C, 1.00E4 nM) was -0.161. It also gave a CD54/ICAM-1 (3C, 1.00E4 nM) of -0.041, a CD87/uPAR (3C, 1.00E4 nM) of -0.370 and a CD106/VCAM-1 (3C, 1.00E4 nM) of 0.044. The CD141/Thrombomodulin (3C, 1.00E4 nM) was 0.020, the “CD142/Tissue Factor” value (3C, 1.00E4 nM) was 0.089 and the CXCL8/IL-8 (3C, 1.00E4 nM) was -0.273. The CXCL9/MIG (3C, 1.00E4 nM) was -0.019, the HLA-DR (3C, 1.00E4 nM) was -0.147 and the Proliferation (3C, 1.00E4 nM) was -0.089. For the same compound, the SRB (3C, 1.00E4 nM) was -0.086, the CCL2/MCP-1 (/HDF3CT, 1.00E0 nM) was -0.00225 and the CD54/ICAM-1 (/HDF3CT, 1.00E0 nM) was -0.030. The CD106/VCAM-1 (/HDF3CT, 1.00E0 nM) was 0.019, the CXCL8/IL-8 (/HDF3CT, 1.00E0 nM) was -0.027 and the CXCL9/MIG (/HDF3CT, 1.00E0 nM) was 0.019. The CXCL10/IP-10 (/HDF3CT, 1.00E0 nM) was 0.006, the “Collagen I” value (/HDF3CT, 1.00E0 nM) was -0.00072 and the M-CSF (/HDF3CT, 1.00E0 nM) was 0.017. The MMP-1 (/HDF3CT, 1.00E0 nM) was 0.072, the PAI-I (/HDF3CT, 1.00E0 nM) was 0.018 and the SRB (/HDF3CT, 1.00E0 nM) was 0.014. For the same compound, the TIMP-2 (/HDF3CT, 1.00E0 nM) was 0.034, the CCL2/MCP-1 (/HDF3CT, 1.00E1 nM) was -0.044 and the CD54/ICAM-1 (/HDF3CT, 1.00E1 nM) was -0.067. It also gave a CD106/VCAM-1 (/HDF3CT, 1.00E1 nM) of 0.019, a CXCL8/IL-8 (/HDF3CT, 1.00E1 nM) of -0.054 and a CXCL9/MIG (/HDF3CT, 1.00E1 nM) of 0.015. For the same compound, the CXCL10/IP-10 (/HDF3CT, 1.00E1 nM) was 0.022, the “Collagen I” value (/HDF3CT, 1.00E1 nM) was -0.038 and the M-CSF (/HDF3CT, 1.00E1 nM) was -0.031. It also gave an MMP-1 (/HDF3CT, 1.00E1 nM) of 0.112, a PAI-I (/HDF3CT, 1.00E1 nM) of -0.053 and an SRB (/HDF3CT, 1.00E1 nM) of -0.00569. The TIMP-2 (/HDF3CT, 1.00E1 nM) was 0.057, the CCL2/MCP-1 (/HDF3CT, 1.00E2 nM) was -0.108 and the CD54/ICAM-1 (/HDF3CT, 1.00E2 nM) was -0.073. For the same compound, the CD106/VCAM-1 (/HDF3CT, 1.00E2 nM) was 0.009, the CXCL8/IL-8 (/HDF3CT, 1.00E2 nM) was -0.154 and the CXCL9/MIG (/HDF3CT, 1.00E2 nM) was -0.031. For the same compound, the CXCL10/IP-10 (/HDF3CT, 1.00E2 nM) was 0.011, the “Collagen I” value (/HDF3CT, 1.00E2 nM) was -0.041 and the M-CSF (/HDF3CT, 1.00E2 nM) was -0.045. For the same compound, the MMP-1 (/HDF3CT, 1.00E2 nM) was 0.027, the PAI-I (/HDF3CT, 1.00E2 nM) was -0.092 and the SRB (/HDF3CT, 1.00E2 nM) was -0.00555. For the same compound, the TIMP-2 (/HDF3CT, 1.00E2 nM) was 0.013, the CCL2/MCP-1 (/HDF3CT, 1.00E3 nM) was -0.094 and the CD54/ICAM-1 (/HDF3CT, 1.00E3 nM) was -0.080. It also gave a CD106/VCAM-1 (/HDF3CT, 1.00E3 nM) of -0.001, a CXCL8/IL-8 (/HDF3CT, 1.00E3 nM) of -0.182 and a CXCL9/MIG (/HDF3CT, 1.00E3 nM) of -0.043. For the same compound, the CXCL10/IP-10 (/HDF3CT, 1.00E3 nM) was 0.00749, the “Collagen I” value (/HDF3CT, 1.00E3 nM) was -0.064 and the M-CSF (/HDF3CT, 1.00E3 nM) was -0.064. The MMP-1 (/HDF3CT, 1.00E3 nM) was 0.014, the PAI-I (/HDF3CT, 1.00E3 nM) was -0.119 and the SRB (/HDF3CT, 1.00E3 nM) was -0.020. It also gave a TIMP-2 (/HDF3CT, 1.00E3 nM) of 0.052, a CCL2/MCP-1 (/HDF3CT, 1.00E4 nM) of -0.114 and a CD54/ICAM-1 (/HDF3CT, 1.00E4 nM) of -0.089. For the same compound, the CD106/VCAM-1 (/HDF3CT, 1.00E4 nM) was 0.006, the CXCL8/IL-8 (/HDF3CT, 1.00E4 nM) was -0.206 and the CXCL9/MIG (/HDF3CT, 1.00E4 nM) was -0.053. The CXCL10/IP-10 (/HDF3CT, 1.00E4 nM) was 0.009, the “Collagen I” value (/HDF3CT, 1.00E4 nM) was -0.042 and the M-CSF (/HDF3CT, 1.00E4 nM) was -0.068. The MMP-1 (/HDF3CT, 1.00E4 nM) was 0.035, the PAI-I (/HDF3CT, 1.00E4 nM) was -0.129 and the SRB (/HDF3CT, 1.00E4 nM) was 0.00189. For the same compound, the TIMP-2 (/HDF3CT, 1.00E4 nM) was 0.072, the CXCL8/IL-8 [1] was 0.063 and the CXCL9/MIG [1] was 0.141. The CXCL10/IP-10 [1] was 0.082, the CXCL11/I-TAC [1] was 0.071 and the EGFR [1] was 0.035. The M-CSF [1] was 0.081, the MMP-1 [1] was 0.152 and the PAI-I [1] was 0.049. For the same compound, the Proliferation_72hr [1] was 0.007, the SRB [1] was 0.029 and the TIMP-1 [1] was 0.066. For the same compound, the TIMP-2 [1] was 0.143, the CXCL8/IL-8 [2] was -0.030 and the CXCL9/MIG [2] was 0.069. For the same compound, the CXCL10/IP-10 [2] was 0.062, the CXCL11/I-TAC [2] was 0.000639 and the EGFR [2] was 0.025. It also gave a M-CSF [2] of 0.039, an MMP-1 [2] of 0.095 and a PAI-I [2] of 0.00174. It also gave a Proliferation_72hr [2] of 0.026, an SRB [2] of -0.013 and a TIMP-1 [2] of 0.023. The TIMP-2 [2] was 0.114, the CXCL8/IL-8 [3] was 0.056 and the CXCL9/MIG [3] was 0.068. It also gave a CXCL10/IP-10 [3] of 0.052, a CXCL11/I-TAC [3] of -0.029 and an EGFR [3] of 0.009. The M-CSF [3] was 0.012, the MMP-1 [3] was 0.109 and the PAI-I [3] was 0.059. For the same compound, the Proliferation_72hr [3] was 0.043, the SRB [3] was -0.046 and the TIMP-1 [3] was 0.021. For the same compound, the TIMP-2 [3] was 0.081, the CXCL8/IL-8 [4] was -0.00424 and the CXCL9/MIG [4] was 0.019. It also gave a CXCL10/IP-10 [4] of 0.029, a CXCL11/I-TAC [4] of 0.022 and an EGFR [4] of 0.016. The M-CSF [4] was 0.038, the MMP-1 [4] was 0.108 and the PAI-I [4] was 0.005. The Proliferation_72hr [4] was 0.043, the SRB [4] was -0.011 and the TIMP-1 [4] was -0.038. It also gave a TIMP-2 [4] of 0.090, a CXCL8/IL-8 [5] of 0.043 and a CXCL9/MIG [5] of 0.044. The CXCL10/IP-10 [5] was 0.051, the CXCL11/I-TAC [5] was -0.015 and the EGFR [5] was 0.031. For the same compound, the M-CSF [5] was -0.007, the MMP-1 [5] was 0.080 and the PAI-I [5] was 0.026. It also gave a Proliferation_72hr [5] of 0.023, an SRB [5] of -0.018 and a TIMP-1 [5] of -0.039. For the same compound, the TIMP-2 [5] was 0.105, the CCL2/MCP-1 (/HDFNo, 1.00E0 nM) was 0.045 and the CD54/ICAM-1 (/HDFNo, 1.00E0 nM) was 0.099. The CD106/VCAM-1 (/HDFNo, 1.00E0 nM) was 0.066, the “Collagen I” value (/HDFNo, 1.00E0 nM) was 0.074 and the “Collagen III” value (/HDFNo, 1.00E0 nM) was 0.041. The CCL2/MCP-1 (/HDFNo, 1.00E1 nM) was 0.107, the CD54/ICAM-1 (/HDFNo, 1.00E1 nM) was 0.090 and the CD106/VCAM-1 (/HDFNo, 1.00E1 nM) was 0.050. The “Collagen I” value (/HDFNo, 1.00E1 nM) was 0.084, the “Collagen III” value (/HDFNo, 1.00E1 nM) was 0.042 and the CCL2/MCP-1 (/HDFNo, 1.00E2 nM) was 0.018. The CD54/ICAM-1 (/HDFNo, 1.00E2 nM) was 0.060, the CD106/VCAM-1 (/HDFNo, 1.00E2 nM) was 0.020 and the “Collagen I” value (/HDFNo, 1.00E2 nM) was 0.100. The “Collagen III” value (/HDFNo, 1.00E2 nM) was 0.061, the CCL2/MCP-1 (/HDFNo, 1.00E3 nM) was -0.027 and the CD54/ICAM-1 (/HDFNo, 1.00E3 nM) was 0.063. For the same compound, the CD106/VCAM-1 (/HDFNo, 1.00E3 nM) was 0.049 and the “Collagen I” value (/HDFNo, 1.00E3 nM) was 0.108.
